In the CombiSolv-Exp solvation set (Vermeire and Green 2021):

Experiment: solvent given as SMILES

COc1ccccc1C(=O)O
Settings	solvation free energy, 298 K [kcal/mol]
in C1CCOC1	-11.8
in C1COCCO1	-11.7
in CC(C)(C)O	-11
in CC(C)CCO	-10.8
in CC(C)CO	-10.9
in CC(C)O	-10.9
in CC(C)OCCO	-11.2
in CC(O)COC(C)(C)C	-11
in CCC(C)O	-11
in CCCC(C)O	-10.8
in CCCCCCCCCCO	-10.5
in CCCCCCCO	-10.8
in CCCCCCO	-10.8
in CCCCCO	-10.9
in CCCCCOC(C)=O	-10.6
in CCCCO	-11.1
in CCCCOC(C)=O	-10.8
in CCCCOCCO	-11.4
in CCCO	-11.2
in CCCOCCO	-11.3
in CCO	-11.5
in CCOC(C)=O	-11.2
in CCOCC	-10.5
in CCOCCO	-11.5
in CO	-11.8
in COC(C)=O	-11.3
in COC(C)CCO	-11.4

CCCCCCCCl
Settings	solvation free energy, 298 K [kcal/mol]
in O	0.29

C=CCCCCCC
Settings	solvation free energy, 298 K [kcal/mol]
in CC#N	-3.98
in CCC#N	-4.66
in CCCC#N	-4.42
in CCCCC(CC)COC(=O)CCCCC(=O)OCC(CC)CCCC	-4.72
in CCCCCCC	-5.17
in CCCCCCCCC=CCCCCCCCC(=O)OCC(COC(=O)CCCCCCCC=CCCCCCCCC)OC(=O)CCCCCCCC=CCCCCCCCC	-4.65
in CCCCCCCCO	-4.58
in CCCCOC(=O)c1ccccc1C(=O)OCCCC	-4.62
in CCN1CCCC1=O	-4.36
in CCN(CC)C(C)=O	-4.5
in CCNC(C)=O	-4.23
in CCNC=O	-3.97
in CCOC(=O)c1ccccc1C(=O)OCC	-4.11
in CN1CCCC1=O	-4.02
in CN(C)C=O	-3.89
in CNC=O	-3.6
in CS(C)=O	-3.04
in N#CCCCCC#N	-3.31
in NC=O	-1.58
in NCCO	-2.07
in Nc1ccccc1	-3.82
in O	1.93
in O=C1CCCO1	-3.53
in O=CN1CCOCC1	-3.4
in OCCO	-1.81
in OCCOCCO	-2.55
in OCCOCCOCCO	-2.78

O=C(c1cc([N+](=O)[O-])cc([N+](=O)[O-])c1)N(O)c1ccccc1
Settings	solvation free energy, 298 K [kcal/mol]
in O	-15.6

COC(=O)C1CCCCC1
Settings	solvation free energy, 298 K [kcal/mol]
in O	-3.3

CCCCCCCCCCOC(=O)c1ccccc1C(=O)OCCCCCCCCCC
Settings	solvation free energy, 298 K [kcal/mol]
in O	-6.22

CCc1ccc(C)cc1
Settings	solvation free energy, 298 K [kcal/mol]
in O	-0.95

CCCCCCCCCC
Settings	solvation free energy, 298 K [kcal/mol]
in CCC(C)(C)OC	-6.77
in CCC(C)=O	-6.01
in CCCCCC	-6.85
in CCCCCCCCCCCCCCCC	-6.34
in CCO	-5.35
in CCOC(=O)c1ccccc1C(=O)OCC	-5.13
in CN1CCCC1=O	-4.92
in CN(C)C=O	-4.94
in COCCO	-4.75
in Cc1ccc(C)cc1	-6.68
in N#CCCCCC#N	-3.99
in O	3.18
in O=CN1CCOCC1	-4.15
in OCCO	-2.19
in OCCOCCO	-3.2
in OCCOCCOCCO	-3.33
in OCCOCCOCCOCCO	-3.61

C=CCO
Settings	solvation free energy, 298 K [kcal/mol]
in CC(=O)N(C)C	-4.69
in CCCCN(C=O)CCCC	-5.42
in CNC(C)=O	-5.87
in O	-5.04

COC(=O)c1ccc(Cl)c([N+](=O)[O-])c1
Settings	solvation free energy, 298 K [kcal/mol]
in CN(C)C=O	-11.6
in O	-6.89

C#CC(C)(C)O
Settings	solvation free energy, 298 K [kcal/mol]
in O	-5.18

CCCCCCCCOC(=O)c1ccccc1C(=O)OCCCC
Settings	solvation free energy, 298 K [kcal/mol]
in O	-6.83

O=C1CCCO1
Settings	solvation free energy, 298 K [kcal/mol]
in CC(C)CC(C)(C)C	-4.99

CS(C)=O
Settings	solvation free energy, 298 K [kcal/mol]
in CCCCCCCCCCCCCCCC	-4.14
in CCOC(C)=O	-6.66

CCCCCCCl
Settings	solvation free energy, 298 K [kcal/mol]
in O	0

CCSC
Settings	solvation free energy, 298 K [kcal/mol]
in O	-1.5

OC1CCCCC1
Settings	solvation free energy, 298 K [kcal/mol]
in Brc1ccccc1	-6.47
in C1CCOC1	-7.24
in CC#N	-6.37
in CC(C)=O	-6.94
in CC(C)CC(C)(C)C	-5.02
in CC(C)O	-7.35
in CCCCCCCCCCCCCCCC	-4.89
in CCCCCCCCCCO	-7.49
in CCCCCCCCO	-7.02
in CCCCOC(C)=O	-7.07
in CO	-7.69
in O	-5.44
in [2H]O[2H]	-5.7
